Results taken from patent US11440923B2, “Substituted macrocyclic indole derivatives” (Bayer Aktiengesellschaft, priority 2017, dated 2022).
Structures can show the parent of a compound that is named as a salt. Where two headings read alike, the source gives them in different places.

Assays:
Format in all cases: cell-based
HMC-1-8 cells = test: Antiproliferation assay HMC-1-8 (Assay 7)
Experimental: (§1) Assessment of the Anti-Proliferative Effect of Compounds in Different Cell Lines
(§2) The impact of compounds on the proliferation of different cell lines was assessed using the CellTiter-Glo® Luminescent Cell Viability reagent from Promega (G7573).
(§3) In parallel, cells were plated in a reference (day 0) plate for time zero determination. Cells were incubated in a humidified incubator at 37° C. overnight.
(§4) Rim wells were excluded. The cells were incubated for 72 h hours in a humidified incubator at 37° C. The day 0 plate was measured by adding 30 μL/well of CTG solution (CellTiter-Glo® Luminescent Cell Viability reagent, Promega G7573) to time zero wells in the reference plate followed by a 10 minutes incubation and luminescence reading at 0.1 ms. using the PHERAstar FS microplate reader (BMG Labtech).
(§5) After 72 h incubation, the treated plates were measured in the same way as the day 0 plate mentioned above. The Bella DRC Master Sheet was used to calculate IC50s, with CI=day 0 values and C0=DMSO control values.

SUDHL5 cells [1] = test: Antiproliferation assay SUDHL5 (Assay 7); conditions: 72 h, CellTiter-Glo, read-out: Antiproli SUDHL5 IC50 (median)
Experimental: as §1, §2, §3, §4, §5

SUDHL10 cells [2] = test: Induction of caspase-3/7 activity in SUDHL10 cells (Assay 4)
Experimental: (§6) Induction of Caspase-3/7 Activity Upon Treatment of Cells with Selected Compounds
(§7) The BH3-domain of MCL-1 sequesters pro-apoptotic proteins, thereby inhibiting apoptosis. In contrast, MCL-1 inhibitors are expected to antagonize this effect leading to an increase in apoptosis, which can be determined by measuring the activity of caspase-3/7.
(§8) The activity of caspase-3/7 was determined in DLBCL (Diffuse large B-cell lymphoma) cell lines (SUDHL5 and SUDHL10) upon treatment with different compounds, using the Caspase-Glo® 3/7 reagent from Promega (G8092).
(§9) As a control, medium without cells was also added to the plate. Cells were incubated in a humidified incubator at 37° C. overnight.
(§10) Rim wells were excluded. The cells were incubated for 3 h hours in a humidified incubator at 37° C. After this incubation, 30 μL of Caspase-Glo® 3/7 reagent (Promega G8092) was added to each well using the Multidrop Combi Reagent Dispenser, followed by 1 h incubation at 37° C. Finally, luminescence was read at 0.1 ms, with a gain of 3000 using the PHERAstar FS microplate reader (BMG Labtech).
(§11) For the evaluation of the results, the background measured with “medium-only” was subtracted from all other values. Then, the values were normalized to DMSO-only treated cells (every value was divided by the mean of the DMSO control).

SUDHL5 cells [3] = test: Induction of caspase-3/7 activity in SUDHL5 cells (Assay 4)
Experimental: as §6, §7, §8, §9, §10, §11

AMO-1 cells = test: Antiproliferation assay AMO-1 (Assay 7)
Experimental: as §1, §2, §3, §4, §5

SUDHL5 cells [4] = test: Induction of cytotoxicity in SUDHL5 cells (Assay 6); conditions: 5 h, CellTiter-Glo, read-out: Cytotox SUDHL5 IC50 (median)
Experimental: (§12) Assay 6 Induction of Cytotoxicity Upon Treatment of Cells with Selected Compounds
(§13) In principle, compounds that induce apoptosis will concomitantly induce cell cytotoxicity. Therefore, cytotoxicity assays were run in parallel in SUDHL5 and SUDHL10 cells.
(§14) As a control, medium without cells was also added to the plate. Cells were incubated in a humidified incubator at 37° C. overnight. […] Rim wells were excluded. The cells were incubated for 5 h hours in a humidified incubator at 37° C. After this incubation, 30 μL of CellTiter-Glo® Luminescent Cell Viability reagent (Promega, G7573) was added to each well using the Multidrop Combi Reagent Dispenser, followed by 15 min incubation on a shaker at room temperature. Finally, luminescence was read at 0.1 ms, with a gain of 3000 using the PHERAstar FS microplate reader (BMG Labtech).

SUDHL10 cells [5] = test: Induction of cytotoxicity in SUDHL10 cells (Assay 6); conditions: 5 h, CellTiter-Glo; read-out: Cytotox SUDHL10 IC50 (median)
Experimental: as §12, §13, §14

[6] = 72 h, CellTiter-Glo; read-out: Antiproli HMC-1-8 IC50 median
[7] = caspase-3/7 induction, 3 h; read-out: Caspase SUDHL10 EC50 (median)
[8] = caspase-3/7 induction, 3 h; read-out: Caspase SUDHL5 EC50 (median)
[9] = 72 h, CellTiter-Glo; read-out: Antiproli AMO-1 IC50 median

Row | Structure (SMILES) | IC50 (HMC-1-8 cells; [6]) | IC50 (SUDHL5 cells [1]) | EC50 (SUDHL10 cells [2]; [7]) | EC50 (SUDHL5 cells [3]; [8]) | IC50 (AMO-1 cells; [9]) | IC50 (SUDHL5 cells [4]) | IC50 (SUDHL10 cells [5]) | also measured
1 | CCc1c2c(nn1C)C(CCN1CCOCC1)OCC(F)(F)CCn1c(C(=O)O)c(CCCOc3cccc4cc(F)ccc34)c3ccc(Cl)c-2c31 (centres unmarked) [Example 89, 4-chloro-3-ethyl-12,12-difluoro-7-{3-[(6-fluoronaphthalen-1-yl)oxy]propyl}-2-methyl-15-[2-(morpholin-4-yl)ethyl]-2,10,11,12,13,15-hexahydropyrazolo[4′,3′:9,10][1,6]oxazacycloundecino[8,7,6-hi]indole-8-carboxylic Acid] | 0.765 µM | 0.036 µM | 0.03 µM | 0.03 µM | 0.0295 µM |  |  | 
2 | CCc1c2c(nn1C)C(CCN1CCOCC1)N(C)CCCCn1c(C(=O)O)c(CCCOc3cccc4cc(F)ccc34)c3ccc(Cl)c-2c31 (centres unmarked) [Example 97, 4-chloro-3-ethyl-7-{3-[(6-fluoronaphthalen-1-yl)oxy]propyl}-2,14-dimethyl-15-[2-(morpholin-4-yl)ethyl]-10,11,12,13,14,15-hexahydro-2H-pyrazolo[3′,4′:8,9][1,6]diazacycloundecino[10,11,1-hi]indole-8-carboxylic Acid—N-ethylethanamine Salt] | 0.405 µM | 0.012 µM | 0.011 µM | 0.011 µM | 0.0163 µM |  |  | 
3 | CCc1c2c(nn1C)C(CCN1CCOCC1)N(C)CCCCn1c(C(=O)O)c(CCCOc3cccc4cc(F)ccc34)c3ccc(Cl)c-2c31 (centres unmarked) [Example 98, 4-chloro-3-ethyl-7-{3-[(6-fluoronaphthalen-1-yl)oxy]propyl}-2,14-dimethyl-15-[2-(morpholin-4-yl)ethyl]-10,11,12,13,14,15-hexahydro-2H-pyrazolo[3′,4′:8,9][1,6]diazacycloundecino[10,11,1-hi]indole-8-carboxylic Acid—N-ethylethanamine Salt] | 11.5 µM | 1.2 µM | 1.5 µM | 1 µM | 0.86 µM | 1.4 µM |  | 
4 | CCc1c2c(nn1C)C(CCN1CCN(C)CC1)OCCCCn1c(C(=O)O)c(CCCOc3cccc4cc(F)ccc34)c3ccc(Cl)c-2c31 (single isomer, unassigned; stereoisomer 4) [Example 73, (−)-4-chloro-3-ethyl-7-{3-[(6-fluoronaphthalen-1-yl)oxy]propyl}-2-methyl-15-[2-(4-methylpiperazin-1-yl)ethyl]-2,10,11,12,13,15-hexahydropyrazolo[4′,3′:9,10][1,6]oxazacycloundecino[8,7,6-hi]indole-8-carboxylic Acid (Stereoisomer 4)] |  |  |  |  |  |  |  | IC50 (HMC-1-8 cells; 72 h, CellTiter-Glo, read-out: Antiproli HMC-1-8 IC50 median): > 33 µM; IC50 (SUDHL5 cells [1]; Homo sapiens, SU-DHL-5, 72 h): 6.1 µM; EC50 (SUDHL10 cells [2]; Homo sapiens, SU-DHL10, 3 h, caspase-3/7 induction, 3 h; read-out: Caspase SUDHL10 EC50 (median)): 8.8 µM; EC50 (SUDHL5 cells [3]; Homo sapiens, SU-DHL-5, 3 h, caspase-3/7 induction, 3 h; read-out: Caspase SUDHL5 EC50 (median)): 5.2 µM; IC50 (SUDHL5 cells [4]; Homo sapiens, SU-DHL-5, 5 h): 7.7 µM; IC50 (AMO-1 cells; Homo sapiens, AMO1, 72 h, 72 h, CellTiter-Glo; read-out: Antiproli AMO-1 IC50 median): 3.84 µM
5 | CCc1c2c(nn1C)[C@@H](CCN1CCOCC1)OCCCCn1c(C(=O)O)c(CCCOc3cccc4cc(F)ccc34)c3ccc(Cl)c-2c31 [Example 48, (15R)-4-chloro-3-ethyl-7-{3-[(6-fluoronaphthalen-1-yl)oxy]propyl}-2-methyl-15-[2-(morpholin-4-yl)ethyl]-2,10,11,12,13,15-hexahydropyrazolo[4′,3′:9,10][1,6]oxazacycloundecino[8,7,6-hi]indole-8-carboxylic Acid—N-ethylethanamine Salt] |  |  |  |  |  | 0.21 µM | 0.2 µM | 
6 | CCc1c2c(nn1C)C(CCN1CCOCC1)OCC(F)(F)CCn1c(C(=O)O)c(CCCOc3cccc4cc(F)ccc34)c3ccc(Cl)c-2c31 (single isomer, unassigned; (-)) [Example 88, (−)-4-chloro-3-ethyl-12,12-difluoro-7-{3-[(6-fluoronaphthalen-1-yl)oxy]propyl}-2-methyl-15-[2-(morpholin-4-yl)ethyl]-2,10,11,12,13,15-hexahydropyrazolo[4′,3′:9,10][1,6]oxazacycloundecino[8,7,6-hi]indole-8-carboxylic Acid] | 3.12 µM | 0.57 µM | 1.1 µM | 0.56 µM | 1.35 µM | 0.76 µM |  | 
7 | CCc1c2c(nn1C)C(CCN1CCOCC1)N(C)CCCCn1c(C(=O)O)c(CCCOc3cccc4cc(F)ccc34)c3ccc(Cl)c-2c31 (racemic) [Example 96, (rac)-4-chloro-3-ethyl-7-{3-[(6-fluoro-1-naphthyl)oxy]propyl}-2,14-dimethyl-15-(rac)-[2-(morpholin-4-yl)ethyl]-10,11,12,13,14,15-hexahydro-2H-pyrazolo[3′,4′:8,9][1,6]diazacycloundecino[10,11,1-hi]indole-8-carboxylic Acid] | 0.726 µM | 0.03 µM | 0.028 µM | 0.019 µM |  | 0.025 µM |  | 
8 | CCc1c2c(nn1C)C(CCN1CCN(C)CC1)OCCCCn1c(C(=O)O)c(CCCOc3cccc4cc(F)ccc34)c3ccc(Cl)c-2c31 (single isomer, unassigned; stereoisomer 3) [Example 72, (−)-4-chloro-3-ethyl-7-{3-[(6-fluoronaphthalen-1-yl)oxy]propyl}-2-methyl-15-[2-(4-methylpiperazin-1-yl)ethyl]-2,10,11,12,13,15-hexahydropyrazolo[4′,3′:9,10][1,6]oxazacycloundecino[8,7,6-hi]indole-8-carboxylic Acid—N-ethylethanamine Salt (Stereoisomer 3)] |  |  |  |  |  | 0.096 µM |  | IC50 (HMC-1-8 cells; read-out: Antiproli HMC-1-8 IC50 median; 72 h, CellTiter-Glo): 2.29 µM; EC50 (SUDHL10 cells [2]; read-out: Caspase SUDHL10 EC50 (median); caspase-3/7 induction, 3 h): 0.054 µM; EC50 (SUDHL5 cells [3]; read-out: Caspase SUDHL5 EC50 (median); caspase-3/7 induction, 3 h): 0.074 µM; IC50 (AMO-1 cells; read-out: Antiproli AMO-1 IC50 median; 72 h, CellTiter-Glo): 0.107 µM
9 | CCc1c2c(nn1C)C(CCN1CCOCC1)OCCCCn1c(C(=O)O)c(CCCOc3cccc4cc(F)ccc34)c3ccc(Cl)c-2c31 (single isomer, unassigned; enantiomer 1) [Example 23, (+)-4-chloro-3-ethyl-7-{3-[(6-fluoronaphthalen-1-yl)oxy]propyl}-2-methyl-15-[2-(morpholin-4-yl)ethyl]-2,10,11,12,13,15-hexahydropyrazolo[4′,3′:9,10][1,6]oxazacycloundecino[8,7,6-hi]indole-8-carboxylic Acid—N-ethylethanamine (Enantiomer 1)] |  |  |  |  |  | 0.0078 µM | 0.0097 µM | 
10 | CCc1c2c(nn1C)C(CCN1CCOCC1)OCCCCn1c(C(=O)O)c(CCCOc3cccc4cc(F)ccc34)c3ccc(Cl)c-2c31 (single isomer, unassigned; enantiomer 2) [Example 24, (−)-4-chloro-3-ethyl-7-{3-[(6-fluoronaphthalen-1-yl)oxy]propyl}-2-methyl-15-[2-(morpholin-4-yl)ethyl]-2,10,11,12,13,15-hexahydropyrazolo[4′,3′:9,10][1,6]oxazacycloundecino[8,7,6-hi]indole-8-carboxylic acid—N-ethylethanamine (Enantiomer 2)] |  |  |  |  |  | 1.7 µM | 6.6 µM | 
